Data published in paper PMC6095626, “Screening of the Pathogen Box for inhibitors with dual efficacy against Giardia lamblia and Cryptosporidium parvum” (PLoS Neglected Tropical Diseases, 2018).

What was measured:
[1] = system: C. parvum (UGA1 Nluc expressing strain in HCT-8 cells); experiment: microbe, parasite or virus in culture; format: cell-based, Cryptosporidium parvum; conditions: for Crypto (10 uM) Mean % inhibition: initial Pathogen Box screen, single concentration 10 µM, inhibition compared to DMSO wells
Summary of the method: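 HCT-8 monolayers grown 48 h to 90–100% confluence, treated with compound at 10 μM or serial dilutions, then infected with bleach-treated UGA1 Nluc C. parvum oocysts.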

[2] = system: G. lamblia trophozoites (luciferase expressing, WBC6); experiment: microbe, parasite or virus in culture; format: cell-based, Giardia lamblia; conditions: initial Pathogen Box screen, single concentration 16 µM, inhibition compared to DMSO wells
Summary of the method: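 Luciferase-expressing WBC6 trophozoites plated at 250,000 cells/mL, compounds added 1:1, incubated anaerobically (GasPak bags) at 37 °C for 24 h; viability read by bioluminescence, with duplicate plates counted on a MOXI Z cell counter. Metronidazole control serially diluted 1:2 from 40 μM.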

SMILES	Crypto (10 uM) Mean % inhibition [1]	Giardia (16 uM) Mean % inhibition [2]	C. parvum cell growth inhibition in the initial screen ([1]; 10 μM, 48 hours) [%]
CC(=O)NCC1CN(c2ccc(-c3ccc(CO)cc3)c(F)c2)C(=O)O1 (stereo not drawn) [MMV688508]	X* (Mean or standard deviation are negative but not significantly different from the control to be a growth promoter)	X* (Mean or standard deviation are negative but not significantly different from the control to be a growth promoter)	–
O=C(OCc1ccccc1)N1CCC(c2cc(-c3ccncc3)c(-c3ccc(F)cc3)[nH]2)CC1 [MMV688509]	X* (Mean or standard deviation are negative but not significantly different from the control to be a growth promoter)	41%	–
N=C(N)c1ccc(-c2cc(-c3ccccc3)on2)cc1 [MMV688514]	79%	36%	–
CC(C)(C)C(=O)N(CCCCCCN1C[C@H](O)[C@@H](O)[C@H](O)[C@H]1CO)C1CCCCCC1 [MMV688543]	X* (Mean or standard deviation are negative but not significantly different from the control to be a growth promoter)	X* (Mean or standard deviation are negative but not significantly different from the control to be a growth promoter)	–
COc1ccc(C2=NCCN2)cc1-c1cn(-c2cccc(C3=NCCN3)c2)nn1 [MMV688547]	45%	33%	–
CC(C)(C)n1nc(-c2ccccc2)c2c(N)ncnc21 [MMV688548]	94%	63%	–
CCc1ccccc1-n1c(C)cn2c3c(=O)n(C(C(=O)OC)C(C)C)c(=O)n(C)c3nc12 (stereo not drawn) [MMV688550]	58%	X* (Mean or standard deviation are negative but not significantly different from the control to be a growth promoter)	–
Cc1nn(C(=O)Nc2cccc(C(F)(F)F)c2)c(C)c1Sc1ncccn1 [MMV688552]	X* (Mean or standard deviation are negative but not significantly different from the control to be a growth promoter)	X* (Mean or standard deviation are negative but not significantly different from the control to be a growth promoter)	–
O=C(NCc1ccoc1)N1CCN(Cc2ccc3c(c2)OCO3)CC1 [MMV688553]	56%	50%	–
CNc1snc(C)c1C(=O)NCCOc1ccc(OC)cc1 [MMV688554]	X* (Mean or standard deviation are negative but not significantly different from the control to be a growth promoter)	X* (Mean or standard deviation are negative but not significantly different from the control to be a growth promoter)	–
O=C(NCc1ccco1)N1CCN(Cc2ccc(Cl)s2)CC1 [MMV688555]	X* (Mean or standard deviation are negative but not significantly different from the control to be a growth promoter)	34%	–
NCC(c1cccs1)S(=O)(=O)c1ccccc1 (stereo not drawn) [MMV688557]	81%	-0.156%	–
CN1CCC(c2cc(-c3ccncc3)c(-c3ccc(F)cc3)[nH]2)CC1 [MMV688703]	84%	18%	–
Cc1cc2nc(NC(=O)C(C)(C)C)nc(Cl)c2n1Cc1ccc(Cl)cc1 [MMV688704]	76%	42%	–
CO/N=C(/C(=O)OC)c1ccccc1CO/N=C(/C)c1cccc(C(F)(F)F)c1 [MMV688754]	X* (Mean or standard deviation are negative but not significantly different from the control to be a growth promoter)	26%	–
CC(=O)NC[C@H]1CN(c2ccc(N3CCSCC3)c(F)c2)C(=O)O1 [MMV688756]	39%	22%	–
CS(=O)(=O)c1ccc(C(=O)N(CC2CCCO2)c2nc3ccccc3s2)cc1[N+](=O)[O-] (stereo not drawn) [MMV688761]	77%	63%	–
c1ccc(-c2[nH]c3ccccc3c2C(c2ccccn2)N2CCCC2)cc1 (stereo not drawn) [MMV688762]	X* (Mean or standard deviation are negative but not significantly different from the control to be a growth promoter)	22%	–
CNc1nnc(Sc2cnn(-c3ccccc3)c(=O)c2Cl)s1 [MMV688763]	49%	X* (Mean or standard deviation are negative but not significantly different from the control to be a growth promoter)	–
COc1ccc(-c2onc(C(F)(F)F)c2-c2ccc(Cl)cc2)c(O)c1 [MMV688766]	X* (Mean or standard deviation are negative but not significantly different from the control to be a growth promoter)	29%	–

SMILES	Crypto (10 uM) Mean % inhibition [1]	Giardia (16 uM) Mean % inhibition [2]	C. parvum cell growth inhibition in the initial screen ([1]; 10 μM, 48 hours) [%]
Cc1[nH]c2ccccc2c1C(c1cccs1)N1CCN(C)CC1 (stereo not drawn) [MMV688768]	66%	9%	–
Cc1ccccc1C(=O)N1NC(=Nc2ccccc2)SC1(C)C [MMV688771]	82%	51%	–
O=C(Cn1ccnc1[N+](=O)[O-])NCc1ccccc1 [MMV688773]	55%	57%	–
CC[C@@H]([C@H](C)O)n1ncn(-c2ccc(N3CCN(c4ccc(OC[C@@H]5CO[C@@](Cn6cncn6)(c6ccc(F)cc6F)C5)cc4)CC3)cc2)c1=O [MMV688774]	90%	X* (Mean or standard deviation are negative but not significantly different from the control to be a growth promoter)	–
Cc1cccnc1NC(=O)c1cccc(OCc2c(C)noc2C)c1 [MMV688793]	63%	45%	–
O=C(NCCc1ccn(-c2ccccc2)n1)C1CCCCC1 [MMV688795]	X* (Mean or standard deviation are negative but not significantly different from the control to be a growth promoter)	29%	–
O=C(NCc1nnc2n1CCCCC2)c1ccc(-c2ccc(F)cc2)o1 [MMV688796]	44%	52%	–
CC1CCCCN1C(=O)NCCc1coc(-c2ccc(F)cc2)n1 (stereo not drawn) [MMV688797]	X* (Mean or standard deviation are negative but not significantly different from the control to be a growth promoter)	23%	–
CS(=O)(=O)c1ccccc1C(=O)N(Cc1ccccc1)c1ccccc1 [MMV688798]	46%	9%	–
O=C(N[C@H](Cc1ccccc1)C(=O)Nc1ccccc1N1CCOCC1)c1cccs1 [MMV688845]	77%	25%	–
Cc1ccccc1CN1CCC(O)(c2ccc(Cl)c(C(F)(F)F)c2)CC1 [MMV688846]	X* (Mean or standard deviation are negative but not significantly different from the control to be a growth promoter)	35%	–
CC(C)(C)n1nc(Cc2ccc(F)c(Cl)c2)c2c(N)ncnc21 [MMV688852]	80%	27%	–
CCOc1ccc2cc(-c3nn(C(C)(C)C)c(N)c3C(N)=O)cnc2c1 [MMV688853]	96%	X* (Mean or standard deviation are negative but not significantly different from the control to be a growth promoter)	≥ 95
CN1CCN(c2cc(-c3ccc(F)cc3)nc(-c3ccncc3)n2)CC1 [MMV688888]	84%	62%	–
Clc1ccc(CCNc2cc(-c3ccccc3)nc3ncnn23)cc1 [MMV688889]	51%	65%	–
COc1cc(Br)cc2cc(C(=O)Nc3cccc(C(F)(F)F)c3)c(=O)oc12 [MMV688891]	51%	7.41%	–
OC[C@H]1O[C@@H](n2c3ccc(Cl)cc3c3c(-c4cc5ccccc5o4)ncnc32)C(O)[C@H]1O (stereo partly drawn) [MMV688921]	51%	5.44%	–
CCc1nn(C)c(C(=O)NCc2ccc(Oc3ccc(C)cc3)cc2)c1Cl [MMV688934]	88%	72%	–
O=C(c1ccco1)N(CCCn1ccnc1)c1nc2c(Cl)cccc2s1 [MMV688936]	6.36%	31%	–
CCOc1ccc(-c2nc(CNCCc3ccc(F)cc3)cs2)cc1 [MMV688938]	X* (Mean or standard deviation are negative but not significantly different from the control to be a growth promoter)	65%	–
